Experiments:
Lactoylglutathione lyase [1] = target: T1, Lactoylglutathione lyase (Homo sapiens, UniProt Q04760); assay: Inhibition of recombinant human N-terminal Met and 6-His-tagged Glyoxalase-1 (Ala2 to Met184 residues) at 25 uM using glutathione and methylglyoxal as substrates preincubated for 15 mins followed by enzyme addition by double beam UV-vis spectrophotometric method relative to control
Target sequence in this assay (Q04760 2-184 limits assumed): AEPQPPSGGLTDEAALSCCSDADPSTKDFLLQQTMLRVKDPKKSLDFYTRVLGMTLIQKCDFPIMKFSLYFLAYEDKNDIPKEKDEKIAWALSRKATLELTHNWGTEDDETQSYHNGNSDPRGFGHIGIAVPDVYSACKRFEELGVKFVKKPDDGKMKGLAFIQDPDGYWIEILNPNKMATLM

Lactoylglutathione lyase [2] = target: T1, Lactoylglutathione lyase; assay: Inhibition of recombinant human N-terminal Met and 6-His-tagged Glyoxalase-1 (Ala2 to Met184 residues) using glutathione and methylglyoxal as substrates preincubated for 15 mins followed by enzyme addition by double beam UV-vis spectrophotometric method
Target sequence in this assay (Q04760 whole entry): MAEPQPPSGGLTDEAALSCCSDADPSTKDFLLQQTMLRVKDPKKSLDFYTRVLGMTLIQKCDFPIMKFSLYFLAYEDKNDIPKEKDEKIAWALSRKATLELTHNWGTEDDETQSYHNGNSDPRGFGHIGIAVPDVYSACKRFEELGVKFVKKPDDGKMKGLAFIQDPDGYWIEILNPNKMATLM

Work on `Cc1ccc(/N=N/c2ccc(N)c3ccc(O)cc23)cc1S(N)(=O)=O` yielded an inhibition (Lactoylglutathione lyase [1]) of 76.4%.

For `Cc1ccc(/N=N/c2ccc(O)c(C(=O)O)c2)cc1S(N)(=O)=O`, the inhibition (Lactoylglutathione lyase [1]) was 67.7% and the IC50 (Lactoylglutathione lyase [2]) was 11.5 µM.

`NS(=O)(=O)c1cccc(/N=N/c2c(O)ccc3ccccc23)c1` gave an inhibition (Lactoylglutathione lyase [1]) of 39% and an IC50 (Lactoylglutathione lyase [2]) of 37.5 µM.

In the case of `NS(=O)(=O)c1cccc(/N=N/c2cc(C(=O)O)c(O)c3ccccc23)c1`, the inhibition (Lactoylglutathione lyase [1]) is reported as 96.5% and the IC50 (Lactoylglutathione lyase [2]) is reported as 1.22 µM.

`Cc1ccc(/N=N/c2c(O)ccc3ccccc23)cc1S(N)(=O)=O` gave an inhibition (Lactoylglutathione lyase [1]) of 34.5% and an IC50 (Lactoylglutathione lyase [2]) of 45 µM.

`Nc1ccc(/N=N/c2cccc(S(N)(=O)=O)c2)c2ccccc12` was tested, and the inhibition (Lactoylglutathione lyase [1]) was 28.1% and the IC50 (Lactoylglutathione lyase [2]) was 85.8 µM.

Molecule `Cc1ccc(/N=N/c2cc3ccc(=O)oc3cc2O)cc1S(N)(=O)=O` has an inhibition (Lactoylglutathione lyase [1]) of 59% and an IC50 (Lactoylglutathione lyase [2]) of 17.8 µM.

Molecule `O=S(=O)(O)c1ccc(/N=N/c2ccc(O)c3ncccc23)cc1` has an inhibition (Lactoylglutathione lyase [1]) of 75% and an IC50 (Lactoylglutathione lyase [2]) of 9.7 µM.

With `Cc1ccc(/N=N/c2cc3ccccc3c(C(=O)O)c2O)cc1S(N)(=O)=O` the IC50 (Lactoylglutathione lyase [2]) was > 100 µM.

`Cc1ccc(/N=N/c2cc(C(=O)O)c(O)c3ccccc23)cc1S(N)(=O)=O` showed an inhibition (Lactoylglutathione lyase [1]) of 100% and an IC50 (Lactoylglutathione lyase [2]) of 1.13 µM.

`Cc1ccc(/N=N/c2cc3ccccc3c(C=O)c2O)cc1S(N)(=O)=O` was tested, and the inhibition (Lactoylglutathione lyase [1]) was 57.4% and the IC50 (Lactoylglutathione lyase [2]) was 18.6 µM.

`O=C(O)c1cccc(/N=N/c2ccc(O)c3ncccc23)c1` was tested, and the inhibition (Lactoylglutathione lyase [1]) was 90.7% and the IC50 (Lactoylglutathione lyase [2]) was 4.37 µM.

In the case of `Oc1ccc(/N=N/c2ccccc2)c2cccnc12`, the inhibition (Lactoylglutathione lyase [1]) is reported as 82.8% and the IC50 (Lactoylglutathione lyase [2]) is reported as 9.13 µM.

For `NS(=O)(=O)c1cccc(/N=N/c2ccc(O)c3ncccc23)c1`, the inhibition (Lactoylglutathione lyase [1]) was 98.3% and the IC50 (Lactoylglutathione lyase [2]) was 1.36 µM.

Work on `O=C(O)c1ccc(/N=N/c2ccc(O)c3ncccc23)cc1` yielded an inhibition (Lactoylglutathione lyase [1]) of 79.9% and an IC50 (Lactoylglutathione lyase [2]) of 4.45 µM.

Molecule `Nc1ccc(/N=N/c2cccc(S(N)(=O)=O)c2)c2ccc(O)cc12` has an inhibition (Lactoylglutathione lyase [1]) of 66% and an IC50 (Lactoylglutathione lyase [2]) of 21.8 µM.

`Cc1ccc(/N=N/c2ccc(N)c3cc(O)ccc23)cc1S(N)(=O)=O` showed an inhibition (Lactoylglutathione lyase [1]) of 57.2% and an IC50 (Lactoylglutathione lyase [2]) of 18.9 µM.

In the case of `NS(=O)(=O)c1cccc(/N=N/c2ccc(O)c3ccccc23)c1`, the inhibition (Lactoylglutathione lyase [1]) is reported as 38.3% and the IC50 (Lactoylglutathione lyase [2]) is reported as 52.2 µM.

In the case of `NS(=O)(=O)c1cccc(/N=N/c2cc3ccc(=O)oc3cc2O)c1`, the inhibition (Lactoylglutathione lyase [1]) is reported as 64.4% and the IC50 (Lactoylglutathione lyase [2]) is reported as 18.9 µM.

`Cc1ccc(/N=N/c2ccc(N)c3ccccc23)cc1S(N)(=O)=O` showed an inhibition (Lactoylglutathione lyase [1]) of 24.7% and an IC50 (Lactoylglutathione lyase [2]) of 95.7 µM.

In the case of `Cc1ccc(/N=N/c2ccc(N)c3cccc(O)c23)cc1S(N)(=O)=O`, the IC50 (Lactoylglutathione lyase [2]) is reported as > 100 µM.

Work on `Cc1ccc(/N=N/c2c(O)ccc3cccc(N)c23)cc1S(N)(=O)=O` yielded an inhibition (Lactoylglutathione lyase [1]) of 54% and an IC50 (Lactoylglutathione lyase [2]) of 24 µM.

`Cc1ccc(/N=N/c2ccc(O)c3ncccc23)cc1S(N)(=O)=O` showed an inhibition (Lactoylglutathione lyase [1]) of 92.1% and an IC50 (Lactoylglutathione lyase [2]) of 1.28 µM.

`NS(=O)(=O)c1cccc(/N=N/c2ccc(O)c(C(=O)O)c2)c1` showed an inhibition (Lactoylglutathione lyase [1]) of 76.5% and an IC50 (Lactoylglutathione lyase [2]) of 8.66 µM.

In the case of `NS(=O)(=O)c1cccc(/N=N/c2ccc(O)cc2)c1`, the inhibition (Lactoylglutathione lyase [1]) is reported as 59.9% and the IC50 (Lactoylglutathione lyase [2]) is reported as 13.4 µM.

— ChEMBL document CHEMBL4725291, “Design, synthesis and biological evaluation of novel glyoxalase I inhibitors possessing diazenylbenzenesulfonamide moiety as potential anticancer agents” (Bioorg Med Chem, 2020)
